Earlier results as cited in patent US10952975B2, “Compositions and methods for treatment of cancer” (priority 2019, dated 2021).
Where two headings read alike, the source gives them in different places.

Key:
[1] = clinical studies
MAT2A [2] = biological target: T1, MAT2A (Homo sapiens, UniProt P31153); conditions: cell-free; [L-Met]=[ATP]=1 mM, [MAT2A]=10 μg/mL; 20 min preincubation, 30 min reaction; read-out: IC50, MAT2A-catalyzed SAM synthesis
LS174T cells = conditions: 36 h, 10 μM FIDAS-3
MAT2A [3] = biological target: T1, MAT2A; conditions: in vitro
[4] = patients with advanced solid tumors

T1 sequence (P31153 whole entry): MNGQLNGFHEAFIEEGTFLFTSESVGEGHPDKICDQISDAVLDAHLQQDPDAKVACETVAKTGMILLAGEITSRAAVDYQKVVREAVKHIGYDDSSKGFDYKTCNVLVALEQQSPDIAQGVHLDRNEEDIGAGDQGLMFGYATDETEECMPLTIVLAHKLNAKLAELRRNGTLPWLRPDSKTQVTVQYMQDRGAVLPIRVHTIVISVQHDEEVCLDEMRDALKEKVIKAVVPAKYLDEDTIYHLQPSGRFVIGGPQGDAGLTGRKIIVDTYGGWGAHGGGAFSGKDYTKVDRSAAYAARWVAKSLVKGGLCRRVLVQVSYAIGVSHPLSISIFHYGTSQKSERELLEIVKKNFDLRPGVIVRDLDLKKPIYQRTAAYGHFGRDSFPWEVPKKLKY

Compound: COc1ccc(/C=C\c2cc(OC)c(OC)c(OC)c2)cc1OP(=O)([O-])[O-].[Na+].[Na+] [CA-4P, Disodium CA-4-3-O-phosphate]
- maximum tolerated dose [1]: 60-68 mg/m^2

Compound: Cc1ccc2c(=O)c3cccc(CC(=O)O)c3oc2c1C [DMXAA, 5,6-dimethylxanthenone-4-acetic acid]
- time to arrest of tumor blood flow after administration (murine tumors): ≤ 30 min

Compound: CN(C)c1ccc(/C=C/c2c(F)cccc2F)cc1 [FIDAS-3]
- IC50 (MAT2A [2]): 4.9 µM
- decrease of SAH level (LS174T cells): 56%
- decrease of SAM level (LS174T cells): 64%
- competition against SAM for MAT2A binding (MAT2A [3]): effectively competes against SAM

Compound: COc1cc(/C=C\c2ccc(OC)c(OP(=O)(O)O)c2OP(=O)(O)O)cc(OC)c1OC [Oxi4503, Tetrasodium Combretastatin A-1 2′,3′-O-diphosphate]
- dose at which a tumor response was seen [4]: 14 mg/m^2
- doses with maximum tumor perfusion reductions [4]: ≥ 11 mg/m^2
- maximum tolerated dose ([4]; escalation to 14 mg/m^2 was possible): 8.5 mg/m^2
